# Columns and labels:
# Assay in all cases: relative viability (nuclei count vs DMSO), 5 days (fraction); higher = more cells survive
# 201T = system: 201T
# How it was run: (§1)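 Relative viability equals treated-well nuclei counts divided by vehicle-well nuclei counts. Counts came from 4× images of lung cancer cell lines grown in 1536-well plates for 5 days after pin-tool dosing on the day after seeding. Dosing used one drug alone or a fixed anchor-drug dose plus five library-drug doses (not always all listed) in √10 steps, and values are medians of duplicate plates.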
# COR-L23 = system: COR-L23
# How it was run: as §1
# EPLC-272H = system: EPLC-272H
# How it was run: as §1
# H3255 = system: H3255
# How it was run: as §1
# HCC-15 = system: HCC-15
# How it was run: as §1
# LOU-NH91 = system: LOU-NH91
# How it was run: as §1
# NCI-H1650 = system: NCI-H1650
# How it was run: as §1
# NCI-H1734 = system: NCI-H1734
# How it was run: as §1
# NCI-H1793 = system: NCI-H1793
# How it was run: as §1
# NCI-H2023 = system: NCI-H2023
# How it was run: as §1
# NCI-H2170 = system: NCI-H2170
# How it was run: as §1
compound,measurement,setting,value
Nc1ccn([C@@H]2O[C@H](CO)[C@@H](O)[C@@H]2O)c(=O)n1 [Cytarabine] + O=C(c1cc(Cc2n[nH]c(=O)c3ccccc23)ccc1F)N1CCN(C(=O)C2CC2)CC1 [Olaparib] (partner 8 µM),relative viability,201T; first compound 0.005 µM,0.832
same,relative viability,201T; first compound 0.01581 µM,0.877
same,relative viability,201T; first compound 0.05 µM,0.914
same,relative viability,201T; first compound 0.1581 µM,0.847
same,relative viability,201T; first compound 0.5 µM,0.827
same,relative viability,COR-L23; first compound 0.005 µM,0.305
same,relative viability,COR-L23; first compound 0.01581 µM,0.309
same,relative viability,COR-L23; first compound 0.05 µM,0.275
same,relative viability,COR-L23; first compound 0.1581 µM,0.131
same,relative viability,COR-L23; first compound 0.5 µM,0.124
same,relative viability,EPLC-272H; first compound 0.005 µM,0.476
same,relative viability,EPLC-272H; first compound 0.01581 µM,0.57
same,relative viability,EPLC-272H; first compound 0.05 µM,0.607
same,relative viability,EPLC-272H; first compound 0.1581 µM,0.244
same,relative viability,EPLC-272H; first compound 0.5 µM,0.123
same,relative viability,H3255; first compound 0.005 µM,0.569
same,relative viability,H3255; first compound 0.01581 µM,0.552
same,relative viability,H3255; first compound 0.05 µM,0.495
same,relative viability,H3255; first compound 0.1581 µM,0.526
same,relative viability,H3255; first compound 0.5 µM,0.446
same,relative viability,HCC-15; first compound 0.005 µM,0.706
same,relative viability,HCC-15; first compound 0.01581 µM,0.655
same,relative viability,HCC-15; first compound 0.05 µM,0.841
same,relative viability,HCC-15; first compound 0.1581 µM,0.649
same,relative viability,HCC-15; first compound 0.5 µM,0.539
same,relative viability,LOU-NH91; first compound 0.005 µM,0.89
same,relative viability,LOU-NH91; first compound 0.01581 µM,0.905
same,relative viability,LOU-NH91; first compound 0.05 µM,0.833
same,relative viability,LOU-NH91; first compound 0.1581 µM,0.676
same,relative viability,LOU-NH91; first compound 0.5 µM,0.625
same,relative viability,NCI-H1650; first compound 0.005 µM,0.638
same,relative viability,NCI-H1650; first compound 0.01581 µM,0.772
same,relative viability,NCI-H1650; first compound 0.05 µM,0.472
same,relative viability,NCI-H1650; first compound 0.1581 µM,0.268
same,relative viability,NCI-H1650; first compound 0.5 µM,0.168
same,relative viability,NCI-H1734; first compound 0.005 µM,0.4
same,relative viability,NCI-H1734; first compound 0.01581 µM,0.243
same,relative viability,NCI-H1734; first compound 0.05 µM,0.183
same,relative viability,NCI-H1734; first compound 0.1581 µM,0.108
same,relative viability,NCI-H1734; first compound 0.5 µM,0.122
same,relative viability,NCI-H1793; first compound 0.005 µM,0.989
same,relative viability,NCI-H1793; first compound 0.01581 µM,0.847
same,relative viability,NCI-H1793; first compound 0.05 µM,0.887
same,relative viability,NCI-H1793; first compound 0.1581 µM,0.359
same,relative viability,NCI-H1793; first compound 0.5 µM,0.244
same,relative viability,NCI-H2023; first compound 0.005 µM,0.382
same,relative viability,NCI-H2023; first compound 0.01581 µM,0.276
same,relative viability,NCI-H2023; first compound 0.05 µM,0.236
same,relative viability,NCI-H2023; first compound 0.1581 µM,0.0812
same,relative viability,NCI-H2023; first compound 0.5 µM,0.0898
same,relative viability,NCI-H2170; first compound 0.005 µM,0.544
same,relative viability,NCI-H2170; first compound 0.01581 µM,0.47

# — the supplement of paper PMC10307832
